Test results reported in publication PMC11944513, “Investigation on Human Carbonic Anhydrase IX and XII Inhibitory Activity and A549 Antiproliferative Activity of a New Class of Coumarinamides” (Pharmaceuticals, 2025).

Legend:
[1] = test system: normal bronchial epithelial cells (BEAS-2B); experiment: cell viability (MTT assay), BEAS-2B; format: cell-based, human; conditions: Homo sapiens, BEAS-2B, 48 h exposure, nonlinear regression, predictive estimates
Procedure: Human bronchial epithelial (BEAS-2B; CRL-3588) and human lung carcinoma (A549; CCL-185) cell lines were obtained from ATCC®. BEAS and A549 cells were maintained in complete RPMI 1640 (Merck, Darmstadt, Germany) at 37 °C and 5% CO2. The medium was supplemented with 10% heat-inactivated fetal bovine serum (FBS), 1% penicillin/streptomycin and 1% sodium pyruvate.
Cells were seeded at different densities according to the different experimental techniques performed (MTT assay and cell cycle analysis) and left to adhere for 24 h. Next, the medium was removed, and cells were treated with tested compounds, dissolved in dimethyl sulfoxide (DMSO) to achieve concentrations ranging from 0 µM (untreated control = CTRL) to 150 µM. The final DMSO concentration was kept below 0.3%. Cell viability was evaluated at up to 72 h post-treatment. Images were acquired 48 h after treatments by means of a light phase-contrast microscope equipped with a camera (Leica). Images were acquired and analyzed by the Leica Application Suite LAS EZ version 3.4 (Leica, Wetzlar, Germany).
BEAS and A549 cells were seeded in 96-well culture-treated plates (Falcon®, Corning Incorporated, Brooklyn, NY, USA) at a density of 0.5 × 10^4 cells/well. Untreated cells were set as the experimental control, representing 100% of cell viability. Exposure times varied from 24 up to 72 h. At the established time points (24, 48 and 72 h), the exposure medium was replaced with fresh medium containing 0.5 mg/mL 3-(4,5-dimethylthiazol-2-yl)-2,5-diphenyltetrazolium bromide (MTT) (Merck, Darmstadt, Germany) and processed as previously reported. The optical density in each well was measured at a wavelength of 540 nm using a spectrophotometer (Thermo Fisher Scientific, Waltham, MA, USA). Each experiment was performed in triplicate per experimental conditions (n = 3).

h-CA I = h-CA I (Homo sapiens, UniProt P00915); experiment: stopped-flow CO2 hydrase assay, h-CA I
h-CA II = h-CA II (Homo sapiens, UniProt P00918); experiment: stopped-flow CO2 hydrase assay, h-CA II
h-CA IX = h-CA IX (Homo sapiens, UniProt Q16790); experiment: stopped-flow CO2 hydrase assay, h-CA IX
h-CA XII = h-CA XII (Homo sapiens, UniProt O43570); experiment: stopped-flow CO2 hydrase assay, h-CA XII
Sequence of h-CA XII (O43570 25-354): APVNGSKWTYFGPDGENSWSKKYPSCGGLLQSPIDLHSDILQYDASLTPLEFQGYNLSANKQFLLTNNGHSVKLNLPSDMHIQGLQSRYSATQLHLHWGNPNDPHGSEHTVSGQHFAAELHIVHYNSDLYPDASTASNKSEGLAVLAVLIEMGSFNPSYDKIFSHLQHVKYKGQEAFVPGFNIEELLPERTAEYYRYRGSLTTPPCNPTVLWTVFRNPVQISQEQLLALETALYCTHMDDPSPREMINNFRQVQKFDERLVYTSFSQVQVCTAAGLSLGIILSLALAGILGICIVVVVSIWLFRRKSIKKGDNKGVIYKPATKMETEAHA

Sequence of h-CA I (P00915 whole entry): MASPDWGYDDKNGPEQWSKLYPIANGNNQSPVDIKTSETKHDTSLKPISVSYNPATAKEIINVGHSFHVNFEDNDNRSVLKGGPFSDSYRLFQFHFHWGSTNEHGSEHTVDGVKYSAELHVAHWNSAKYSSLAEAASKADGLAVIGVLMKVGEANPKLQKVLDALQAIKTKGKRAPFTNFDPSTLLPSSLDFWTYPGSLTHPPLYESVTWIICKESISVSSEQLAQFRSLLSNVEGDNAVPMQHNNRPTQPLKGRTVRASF

| Structure (SMILES) | IC50 [1] [µM] | Ki (h-CA I) [µM] | Ki (h-CA II) [µM] | Ki (h-CA IX) [µM] | Ki (h-CA XII) [µM] |
| --- | --- | --- | --- | --- | --- |
| O=C(NCc1ccccc1)c1cc2ccc(O)cc2oc1=O [Compound 4, N-Benzyl-7-Hydroxy-2-Oxo-2H-Chromene-3-Carboxamide] | 344.9 ± 3.14 | > 100 | > 100 | 42.2 | 7.5 |
| COc1ccccc1CNC(=O)c1cc2ccc(O)cc2oc1=O [Compound 8, 7-Hydroxy-N-(2-Methoxybenzyl)-2-Oxo-2H-Chromene-3-Carboxamide] | – | > 100 | > 100 | 77.4 | 70.2 |
| COc1cccc(CNC(=O)c2cc3ccc(O)cc3oc2=O)c1 [Compound 10, 7-Hydroxy-N-(3-Methoxybenzyl)-2-Oxo-2H-Chromene-3-Carboxamide] | – | > 100 | > 100 | 63.1 | 73.1 |
| O=C(NCc1ccc([N+](=O)[O-])cc1)c1cc2ccc(O)cc2oc1=O [Compound 11, 7-Hydroxy-N-(4-Nitrobenzyl)-2-Oxo-2H-Chromene-3-Carboxamide] | – | > 100 | > 100 | 75.7 | 49.8 |
| O=C(NCc1cccc([N+](=O)[O-])c1)c1cc2ccc(O)cc2oc1=O [Compound 12, 7-Hydroxy-N-(3-Nitrobenzyl)-2-Oxo-2H-Chromene-3-Carboxamide] | – | > 100 | > 100 | 64.7 | 55.2 |
| O=C(NCc1ccc(F)cc1)c1cc2ccc(O)cc2oc1=O [Compound 13, N-(4-Fluorobenzyl)-7-Hydroxy-2-Oxo-2H-Chromene-3-Carboxamide] | – | > 100 | > 100 | 86.9 | 70.5 |
| O=C(NCc1cccc(F)c1)c1cc2ccc(O)cc2oc1=O [Compound 14, N-(3-Fluorobenzyl)-7-Hydroxy-2-Oxo-2H-Chromene-3-Carboxamide] | – | > 100 | > 100 | 73.2 | 57.6 |
| O=C(NCc1ccccc1C(F)(F)F)c1cc2ccc(O)cc2oc1=O [Compound 15, 7-Hydroxy-2-Oxo-N-(2-(Trifluoromethyl)benzyl)-2H-Chromene-3-Carboxamide] | – | > 100 | > 100 | 50 | 31.5 |
| O=C(NCc1cccc(C(F)(F)F)c1)c1cc2ccc(O)cc2oc1=O [Compound 16, 7-Hydroxy-2-Oxo-N-(3-(Trifluoromethyl)benzyl)-2H-Chromene-3-Carboxamide] | – | > 100 | > 100 | 77.1 | 64.4 |
| O=C(NCc1ccc(C(F)(F)F)cc1)c1cc2ccc(O)cc2oc1=O [Compound 17, 7-Hydroxy-2-Oxo-N-(4-(Trifluoromethyl)benzyl)-2H-Chromene-3-Carboxamide] | – | > 100 | > 100 | 83.7 | 54.1 |
| O=C(NCc1ccc(Br)cc1)c1cc2ccc(O)cc2oc1=O [Compound 18, N-(4-Bromobenzyl)-7-Hydroxy-2-Oxo-2H-Chromene-3-Carboxamide] | – | > 100 | > 100 | 60.7 | 26.1 |
| O=C(NCc1cccc(Cl)c1)c1cc2ccc(O)cc2oc1=O [Compound 20, N-(3-Chlorobenzyl)-7-Hydroxy-2-Oxo-2H-Chromene-3-Carboxamide] | – | > 100 | > 100 | 33.9 | 42.6 |
| O=C(NCc1ccc(Cl)cc1)c1cc2ccc(O)cc2oc1=O [Compound 21, N-(4-Chlorobenzyl)-7-Hydroxy-2-Oxo-2H-Chromene-3-Carboxamide] | – | > 100 | > 100 | 80.7 | 39.7 |
| O=C(NCc1c(Cl)cccc1Cl)c1cc2ccc(O)cc2oc1=O [Compound 24, N-(2,6-Dichlorobenzyl)-7-Hydroxy-2-Oxo-2H-Chromene-3-Carboxamide] | – | > 100 | > 100 | 85.6 | 75.1 |
| COc1ccc(CCNC(=O)c2cc3ccc(O)cc3oc2=O)cc1 [Compound 26, 7-Hydroxy-N-(4-Methoxyphenethyl)-2-Oxo-2H-Chromene-3-Carboxamide] | – | > 100 | > 100 | 80.8 | 57.7 |
| COc1ccc(CCNC(=O)c2cc3ccc(O)cc3oc2=O)cc1OC [Compound 27, N-(3,4-Dimethoxyphenethyl)-7-Hydroxy-2-Oxo-2H-Chromene-3-Carboxamide] | – | > 100 | > 100 | 84.7 | 50.8 |
| O=C(NCCc1ccc(F)cc1)c1cc2ccc(O)cc2oc1=O [Compound 28, N-(4-Fluorophenethyl)-7-Hydroxy-2-Oxo-2H-Chromene-3-Carboxamide] | – | > 100 | > 100 | 80.4 | 66.9 |
| O=C(c1cc2ccc(O)cc2oc1=O)N1CCN(Cc2ccccc2)CC1 [Compound 31, 3-(4-Benzylpiperazine-1-Carbonyl)-7-Hydroxy-2H-Chromen-2-One] | – | > 100 | > 100 | 84.1 | 59.5 |
| Cc1cccc(N2CCN(C(=O)c3cc4ccc(O)cc4oc3=O)CC2)c1 [Compound 33, 7-Hydroxy-3-(4-(m-tolyl)piperazine-1-Carbonyl)-2H-Chromen-2-One] | – | > 100 | > 100 | 89.3 | 40.5 |
| Cc1ccc(N2CCN(C(=O)c3cc4ccc(O)cc4oc3=O)CC2)cc1 [Compound 34, 7-Hydroxy-3-(4-(p-tolyl)piperazine-1-Carbonyl)-2H-Chromen-2-One] | – | > 100 | > 100 | 83.2 | 56 |
| Cc1cccc(N2CCN(C(=O)c3cc4ccc(O)cc4oc3=O)CC2)c1C [Compound 35, 3-(4-(2,3-Dimethylphenyl)piperazine-1-Carbonyl)-7-Hydroxy-2H-Chromen-2-One] | – | > 100 | > 100 | 82.2 | 41.4 |
| Cc1ccc(N2CCN(C(=O)c3cc4ccc(O)cc4oc3=O)CC2)c(C)c1 [Compound 36, 3-(4-(2,4-Dimethylphenyl)piperazine-1-Carbonyl)-7-Hydroxy-2H-Chromen-2-One] | – | > 100 | > 100 | 78.1 | 69.7 |
| Cc1ccc(C)c(N2CCN(C(=O)c3cc4ccc(O)cc4oc3=O)CC2)c1 [Compound 37, 3-(4-(2,5-Dimethylphenyl)piperazine-1-Carbonyl)-7-Hydroxy-2H-Chromen-2-One] | – | > 100 | > 100 | 75.9 | 63.4 |
| Cc1cc(C)cc(N2CCN(C(=O)c3cc4ccc(O)cc4oc3=O)CC2)c1 [Compound 39, 3-(4-(3,5-Dimethylphenyl)piperazine-1-Carbonyl)-7-Hydroxy-2H-Chromen-2-One] | – | > 100 | > 100 | 68.1 | 46.8 |
| O=C(c1cc2ccc(O)cc2oc1=O)N1CCN(c2ccccc2[N+](=O)[O-])CC1 [Compound 40, 7-Hydroxy-3-(4-(2-Nitrophenyl)piperazine-1-Carbonyl)-2H-Chromen-2-One] | – | > 100 | > 100 | 85.2 | 63.8 |
| O=C(c1cc2ccc(O)cc2oc1=O)N1CCN(c2cccc([N+](=O)[O-])c2)CC1 [Compound 41, 7-Hydroxy-3-(4-(3-Nitrophenyl)piperazine-1-Carbonyl)-2H-Chromen-2-One] | – | > 100 | > 100 | 25.4 | 47.5 |
| O=C(c1cc2ccc(O)cc2oc1=O)N1CCN(c2ccc([N+](=O)[O-])cc2)CC1 [Compound 42, 7-Hydroxy-3-(4-(4-Nitrophenyl)piperazine-1-Carbonyl)-2H-Chromen-2-One] | – | > 100 | > 100 | 30.1 | 62.8 |
| COc1cccc(N2CCN(C(=O)c3cc4ccc(O)cc4oc3=O)CC2)c1 [Compound 43, 7-Hydroxy-3-(4-(3-Methoxyphenyl)piperazine-1-Carbonyl)-2H-Chromen-2-One] | – | > 100 | > 100 | 40.4 | 79.9 |
